Like-named read-outs stand apart in the source and are kept apart here.
Experiments:
[1] = biological target: L25A PETNR (Enterobacter cloacae, UniProt P71278, L26A); details: for kobs1 / A2 (amplitude of kobs2 out of total absorbance change) / kobs2: pH 7.0; for ΔCp^⧧ / ΔHT0^⧧ / ΔST0^⧧: fit of kobs1 (5–40 °C) to eq 1
[2] = biological target: WT PETNR (Enterobacter cloacae, UniProt P71278); assay: Stopped-flow FMN reduction (reductive half-reaction, hydride transfer) of WT PETNR by coenzyme; details: for kobs1: 10 mM NADPH or 25 mM NADH, pH 7.0; for ΔCp^⧧ / ΔHT0^⧧ / ΔST0^⧧: fit of kobs1 (5–40 °C) to eq 1
Chain of WT PETNR (P71278 entry or part of it): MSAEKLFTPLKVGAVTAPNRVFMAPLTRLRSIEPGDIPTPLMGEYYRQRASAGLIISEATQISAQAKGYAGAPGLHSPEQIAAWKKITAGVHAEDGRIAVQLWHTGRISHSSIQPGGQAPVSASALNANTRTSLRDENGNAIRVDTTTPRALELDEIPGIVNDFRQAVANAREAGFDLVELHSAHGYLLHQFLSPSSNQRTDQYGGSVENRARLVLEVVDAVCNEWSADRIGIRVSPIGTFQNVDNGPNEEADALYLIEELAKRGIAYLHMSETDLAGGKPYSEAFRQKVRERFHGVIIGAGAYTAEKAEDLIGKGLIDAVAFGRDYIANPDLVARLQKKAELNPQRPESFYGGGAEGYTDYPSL

[3] = biological target: L25I PETNR (Enterobacter cloacae, UniProt P71278, L26I); details: for kobs1 / A2 (amplitude of kobs2 out of total absorbance change) / kobs2: 10 mM NADPH or 25 mM NADH, pH 7.0; for ΔCp^⧧ / ΔHT0^⧧ / ΔST0^⧧: fit of kobs1 (5–40 °C) to eq 1
Chain of L25I PETNR (P71278 entry or part of it L26I): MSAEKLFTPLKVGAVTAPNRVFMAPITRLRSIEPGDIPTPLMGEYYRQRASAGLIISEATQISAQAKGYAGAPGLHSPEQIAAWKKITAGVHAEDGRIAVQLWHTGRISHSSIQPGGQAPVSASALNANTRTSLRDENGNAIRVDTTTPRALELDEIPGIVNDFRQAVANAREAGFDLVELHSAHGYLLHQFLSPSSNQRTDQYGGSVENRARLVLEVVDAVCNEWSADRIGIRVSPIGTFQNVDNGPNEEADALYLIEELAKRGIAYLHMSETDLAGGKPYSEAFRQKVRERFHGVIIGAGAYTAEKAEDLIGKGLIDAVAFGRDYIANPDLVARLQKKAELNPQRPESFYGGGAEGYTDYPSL

[4] = 5 °C, 10 mM NADPH or 25 mM NADH
[5] = 10 °C, 10 mM NADPH or 25 mM NADH
[6] = 15 °C, 10 mM NADPH or 25 mM NADH
[7] = 20 °C, 10 mM NADPH or 25 mM NADH
[8] = 25 °C, 10 mM NADPH or 25 mM NADH
[9] = 30 °C, 10 mM NADPH or 25 mM NADH
[10] = 35 °C, 10 mM NADPH or 25 mM NADH
[11] = 40 °C, 10 mM NADPH or 25 mM NADH
[12] = deuterated minus protiated coenzyme, T0 = 298 K
[13] = 25 °C, 50 mM potassium phosphate pH 7.0, 20 μM enzyme
[14] = 25 °C, 50 mM potassium phosphate pH 7.0, 20 μM enzyme, fast phase
[15] = 40 °C, third phase, 10 mM NADPH or 25 mM NADH

Chain of L25A PETNR (P71278 entry or part of it L26A): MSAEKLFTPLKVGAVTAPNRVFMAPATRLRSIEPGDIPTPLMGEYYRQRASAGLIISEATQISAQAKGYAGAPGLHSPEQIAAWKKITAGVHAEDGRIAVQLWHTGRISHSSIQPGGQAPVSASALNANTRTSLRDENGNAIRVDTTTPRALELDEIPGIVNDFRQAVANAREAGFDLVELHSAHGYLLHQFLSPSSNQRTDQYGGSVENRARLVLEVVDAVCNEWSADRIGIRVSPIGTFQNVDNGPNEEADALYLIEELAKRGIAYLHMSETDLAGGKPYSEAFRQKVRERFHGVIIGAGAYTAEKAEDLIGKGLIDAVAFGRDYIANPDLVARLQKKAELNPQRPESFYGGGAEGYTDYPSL

With `[2H][C@@H]1C=CN([C@@H]2O[C@H](COP(=O)(O)OP(=O)(O)OC[C@H]3O[C@@H](n4cnc5c(N)ncnc54)[C@H](O)[C@@H]3O)[C@@H](O)[C@H]2O)C=C1C(N)=O` [(R)-[4-^2H]-NADH] the kobs1 [1, 4] was 0.162 ± 0.002 s⁻¹, the kobs1 [1, 5] was 0.211 ± 0.002 s⁻¹ and the kobs1 [1, 6] was 0.275 ± 0.004 s⁻¹. The kobs1 [1, 7] was 0.360 ± 0.004 s⁻¹, the kobs1 [1, 8] was 0.495 ± 0.002 s⁻¹ and the kobs1 [1, 9] was 0.612 ± 0.042 s⁻¹. For the same compound, the “A2 (amplitude of kobs2 out of total absorbance change)” value [1, 10] was 15.60 ± 2.69%, the kobs1 [1, 10] was 0.885 ± 0.018 s⁻¹ and the kobs2 [1, 10] was 0.11 ± 0.03 s⁻¹. For the same compound, the “A2 (amplitude of kobs2 out of total absorbance change)” value [1, 11] was 34.60 ± 0.91%, the kobs1 [1, 11] was 1.070 ± 0.054 s⁻¹ and the kobs2 [1, 11] was 0.17 ± 0.01 s⁻¹. For the same compound, the “ΔCp^⧧” value ([1]; T0 = 298 K) was 0.42 ± 0.14 kJ mol^–1 K^–1, the “ΔHT0^⧧” value ([1]; T0 = 298 K) was 40.3 ± 1.1 kJ mol^–1 and the “ΔST0^⧧” value ([1]; T0 = 298 K) was “–115.7 ± 3.8 J mol^–1 K^–1”. The “Isotope Effect on ΔCp^⧧” value [1, 12] was 0.13 ± 0.15 kJ mol^–1 K^–1, the “Isotope Effect on ΔHT0^⧧” value [1, 12] was 6.6 ± 1.2 kJ mol^–1 and the “Isotope Effect on ΔST0^⧧” value [1, 12] was 6.4 ± 4.2 J mol^–1 K^–1. The kobs1 ([2]; 5 °C) was 0.091 ± 0.001 s⁻¹, the kobs1 ([2]; 15 °C) was 0.156 ± 0.001 s⁻¹ and the kobs1 ([2]; 20 °C) was 0.204 ± 0.002 s⁻¹. For the same compound, the kobs1 ([2]; 25 °C) was 0.274 ± 0.001 s⁻¹, the kobs1 ([2]; 30 °C) was 0.366 ± 0.002 s⁻¹ and the kobs1 ([2]; 35 °C) was 0.499 ± 0.011 s⁻¹. The kobs1 ([2]; 40 °C) was 0.673 ± 0.005 s⁻¹, the “ΔCp^⧧” value ([2]; T0 = 298 K) was 0.46 ± 0.02 kJ mol^–1 K^–1 and the “ΔHT0^⧧” value ([2]; T0 = 298 K) was 40.3 ± 0.1 kJ mol^–1. The “ΔST0^⧧” value ([2]; T0 = 298 K) was “–120.4 ± 0.5 J mol^–1 K^–1”, the “Isotope Effect on ΔCp^⧧” value [2, 12] was 0.07 ± 0.04 kJ mol^–1 K^–1 and the “Isotope Effect on ΔHT0^⧧ (ΔΔHT0^⧧)” value [2, 12] was 4.9 ± 0.2 kJ mol^–1. The “Isotope Effect on ΔST0^⧧” value [2, 12] was 0.1 ± 0.7 J mol^–1 K^–1, the kobs1 ([3]; 5 °C) was 0.062 ± 0.001 s⁻¹ and the kobs1 ([3]; 10 °C) was 0.083 ± 0.001 s⁻¹. For the same compound, the kobs1 ([3]; 20 °C) was 0.160 ± 0.001 s⁻¹, the kobs1 ([3]; 25 °C) was 0.223 ± 0.003 s⁻¹ and the kobs1 ([3]; 30 °C) was 0.306 ± 0.005 s⁻¹. For the same compound, the kobs1 ([3]; 35 °C) was 0.418 ± 0.001 s⁻¹, the kobs1 ([3]; 40 °C) was 0.604 ± 0.066 s⁻¹ and the “ΔCp^⧧” value ([3]; T0 = 298 K) was 0.30 ± 0.07 kJ mol^–1 K^–1. For the same compound, the “ΔHT0^⧧” value ([3]; T0 = 298 K) was 44.9 ± 0.2 kJ mol^–1, the “ΔST0^⧧” value ([3]; T0 = 298 K) was “–106.8 ± 0.8 J mol^–1 K^–1” and the “Isotope Effect on ΔCp^⧧” value [3, 12] was “–0.03 ± 0.19 kJ mol^–1 K^–1”. The “Isotope Effect on ΔHT0^⧧” value [3, 12] was 2.3 ± 1.8 kJ mol^–1 and the “Isotope Effect on ΔST0^⧧” value [3, 12] was “–9.2 ± 6.0 J mol^–1 K^–1”.
`NC(=O)C1=CN([C@@H]2O[C@H](COP(=O)(O)OP(=O)(O)OC[C@H]3O[C@@H](n4cnc5c(N)ncnc54)[C@H](O)[C@@H]3O)[C@@H](O)[C@H]2O)C=CC1` [NADH] gave a kobs1 [1, 4] of 1.27 ± 0.01 s⁻¹, a kobs1 [1, 5] of 1.61 ± 0.01 s⁻¹ and a kobs1 [1, 6] of 2.03 ± 0.01 s⁻¹. It also gave a kobs1 [1, 7] of 2.63 ± 0.03 s⁻¹, a KS [1, 13] of 2294 ± 91 µM and a kred [1, 14] of 3.62 ± 0.04 s^–1. For the same compound, the “A2 (amplitude of kobs2 out of total absorbance change)” value [1, 8] was 2.29 ± 0.92%, the kobs1 [1, 8] was 3.33 ± 0.07 s⁻¹ and the kobs2 [1, 8] was 0.09 ± 0.06 s⁻¹. The “A2 (amplitude of kobs2 out of total absorbance change)” value [1, 9] was 4.93 ± 0.85%, the kobs1 [1, 9] was 4.23 ± 0.06 s⁻¹ and the kobs2 [1, 9] was 0.08 ± 0.01 s⁻¹. For the same compound, the “A2 (amplitude of kobs2 out of total absorbance change)” value [1, 10] was 12.72 ± 0.74%, the kobs1 [1, 10] was 5.20 ± 0.11 s⁻¹ and the kobs2 [1, 10] was 0.11 ± 0.01 s⁻¹. The “A3 (amplitude of third phase)” value [1, 15] was 19.01 ± 3.17%, the kobs3 [1, 15] was 1.10 ± 0.0 and the “A2 (amplitude of kobs2 out of total absorbance change)” value [1, 11] was 20.40 ± 1.48%. For the same compound, the kobs1 [1, 11] was 6.74 ± 0.37 s⁻¹, the kobs2 [1, 11] was 0.13 ± 0.01 s⁻¹ and the “ΔCp^⧧” value ([1]; T0 = 298 K) was 0.28 ± 0.05 kJ mol^–1 K^–1. The “ΔHT0^⧧” value ([1]; T0 = 298 K) was 33.6 ± 0.5 kJ mol^–1, the “ΔST0^⧧” value ([1]; T0 = 298 K) was “–122.1 ± 1.7 J mol^–1 K^–1” and the kobs1 ([2]; 5 °C) was 0.73 ± 0.01 s⁻¹. It also gave a kobs1 ([2]; 10 °C) of 0.92 ± 0.01 s⁻¹, a kobs1 ([2]; 15 °C) of 1.17 ± 0.01 s⁻¹ and a kobs1 ([2]; 20 °C) of 1.51 ± 0.01 s⁻¹. For the same compound, the KS [2, 13] was 1067 ± 13 µM, the kred [2, 14] was 2.03 ± 0.01 s^–1 and the kobs1 ([2]; 25 °C) was 1.95 ± 0.01 s⁻¹. The kobs1 ([2]; 30 °C) was 2.53 ± 0.02 s⁻¹, the kobs1 ([2]; 35 °C) was 3.30 ± 0.01 s⁻¹ and the kobs1 ([2]; 40 °C) was 4.25 ± 0.02 s⁻¹. For the same compound, the “ΔCp^⧧” value ([2]; T0 = 298 K) was 0.39 ± 0.03 kJ mol^–1 K^–1, the “ΔHT0^⧧” value ([2]; T0 = 298 K) was 35.4 ± 0.1 kJ mol^–1 and the “ΔST0^⧧” value ([2]; T0 = 298 K) was “–120.5 ± 0.5 J mol^–1 K^–1”. For the same compound, the kobs1 ([3]; 5 °C) was 0.49 ± 0.01 s⁻¹, the kobs1 ([3]; 10 °C) was 0.66 ± 0.01 s⁻¹ and the kobs1 ([3]; 15 °C) was 0.90 ± 0.01 s⁻¹. The kobs1 ([3]; 20 °C) was 1.20 ± 0.01 s⁻¹, the KS [3, 13] was 306 ± 40 µM and the kred [3, 14] was 1.74 ± 0.04 s^–1. For the same compound, the “A2 (amplitude of kobs2 out of total absorbance change)” value ([3]; 25 °C) was 6.40 ± 2.07%, the kobs1 ([3]; 25 °C) was 1.77 ± 0.06 s⁻¹ and the kobs2 ([3]; 25 °C) was 0.36 ± 0.10 s⁻¹. The “A2 (amplitude of kobs2 out of total absorbance change)” value ([3]; 30 °C) was 6.86 ± 1.61%, the kobs1 ([3]; 30 °C) was 2.39 ± 0.06 s⁻¹ and the kobs2 ([3]; 30 °C) was 0.39 ± 0.09 s⁻¹. The “A2 (amplitude of kobs2 out of total absorbance change)” value ([3]; 35 °C) was 8.92 ± 1.01%, the kobs1 ([3]; 35 °C) was 3.26 ± 0.07 s⁻¹ and the kobs2 ([3]; 35 °C) was 0.49 ± 0.07 s⁻¹. For the same compound, the “A2 (amplitude of kobs2 out of total absorbance change)” value ([3]; 40 °C) was 12.28 ± 1.93%, the kobs1 ([3]; 40 °C) was 4.26 ± 0.13 s⁻¹ and the kobs2 ([3]; 40 °C) was 0.58 ± 0.05 s⁻¹. For the same compound, the “ΔCp^⧧” value ([3]; T0 = 298 K) was 0.32 ± 0.18 kJ mol^–1 K^–1, the “ΔHT0^⧧” value ([3]; T0 = 298 K) was 42.7 ± 1.7 kJ mol^–1 and the “ΔST0^⧧” value ([3]; T0 = 298 K) was “–97.7 ± 6.0 J mol^–1 K^–1”.

Source: paper PMC6516726 (ACS Catalysis, 2018)
